Assay results taken from patent publication US12559474B2, “Triazine derivatives having virus replication inhibitory activity and pharmaceutical composition comprising the same” (priority 2021, dated 2026).
“And” between values parts separate entries of the source, which are not always exact repeats. Equal entries are not always repeated.

Molecular target: SARS-CoV-2 3CL protease (Severe acute respiratory syndrome coronavirus 2, UniProt P0DTD1)
Assay: biochemical
Conditions: IC50

SMILES	IC50
Cc1cncc(-n2c(=O)nc(Nc3cc(F)c(N=S4(=O)CCCC4)cc3Cl)n(Cc3cc(Cl)ccc3C)c2=O)c1 [II-0620]	< 100 nM
O=c1[nH]cccc1Cn1c(=O)nc(Nc2ccc(OCCO)cc2Cl)n(Cc2cc(F)c(F)c(F)c2)c1=O [Compound I-0371]	< 100 nM
Cn1cnc(Cn2c(=O)nc(Nc3cc4cn(C)nc4cc3Cl)n(Cc3cc(Cl)cc(F)c3OCCO)c2=O)n1 [II-0642]	< 100 nM
CN(C(=O)Cn1cc2cc(Nc3nc(=O)n(Cc4ncn(C)n4)c(=O)n3Cc3cc(Cl)c(F)cc3F)c(Cl)cc2n1)C1CC1 [II-0146]	< 100 nM
CNC(=O)c1c[nH]c(=O)c(Cn2c(=O)nc(Nc3cc4c(cc3Cl)OCC4)n(Cc3cc(F)c(F)c(F)c3)c2=O)c1 [Compound I-0478]	< 100 nM
Cn1cnc(Cn2c(=O)nc(Nc3cc4cn(CC(=O)N5CCCC5)nc4cc3Cl)n(Cc3cc(F)c(F)c(Cl)c3)c2=O)n1 [II-0147]	< 100 nM
COc1cnc(NC23CC(Nc4nc(=O)n(Cc5ccc[nH]c5=O)c(=O)n4Cc4cc(F)c(F)c(F)c4)(C2)C3)nc1 [II-0441]	< 100 nM
COc1ccc(Nc2nc(=O)n(Cc3ccc(C(=O)NCCN(C)C)[nH]c3=O)c(=O)n2Cc2cc(F)c(F)c(F)c2)cc1 [Compound I-0074]	< 100 nM
CCNC(=O)Cn1cc2cc(Nc3nc(=O)n(Cc4ncn(C)n4)c(=O)n3Cc3cc(Cl)c(F)cc3F)c(Cl)cc2n1 [II-0151]	< 100 nM
CNc1nc2cc(F)c(Nc3nc(=O)n(-c4cncc(C)c4)c(=O)n3Cc3cc(F)c(F)c(Cl)c3)cc2s1 [II-0293]	< 100 nM
Cn1cc2cc(Nc3nc(=O)n(Cc4cc(F)c[nH]c4=O)c(=O)n3Cc3ccc(F)c(C#N)c3)c(Cl)cc2n1 [Compound I-0270]	< 100 nM
O=c1cc(Cl)c(Nc2nc(=O)n(Cc3ccc[nH]c3=O)c(=O)n2Cc2cc(F)c(F)c(F)c2)c[nH]1 [Compound I-0246]	< 100 nM
O=c1[nH]cccc1Cn1c(=O)nc(NC2CC(F)(F)C2)n(Cc2cc(F)c(F)c(F)c2)c1=O [II-0231]	880 nM
COc1ccc(Nc2nc(=O)n(Cc3ccc[nH]c3=O)c(=O)n2Cc2cc(F)cc(C#N)c2)cc1 [Compound I-0234]	< 100 nM
COC(=O)NC12CC(Nc3nc(=O)n(Cc4ccc[nH]c4=O)c(=O)n3Cc3cc(F)c(F)c(F)c3)(C1)C2 [II-0062]	< 100 nM
CNc1nc2cc(Cl)c(Nc3nc(=O)n(Cc4ncn(C)n4)c(=O)n3Cc3ccc(F)c(C#N)c3)cc2s1 [II-0603]	< 100 nM
Cc1cncc(-n2c(=O)nc(Nc3ccc(N=S4(=O)CCCC4)c(Cl)c3Cl)n(Cc3cc(Cl)ccc3C)c2=O)c1 [II-0617]	< 100 nM
Cn1cnc(Cn2c(=O)nc(Nc3cc4cn(CC(=O)NC5CC5)nc4cc3Cl)n(Cc3cc(Cl)c(F)cc3F)c2=O)n1 [II-0148]	< 100 nM
Cc1cncc(-n2c(=O)nc(Nc3cc4cn(C)nc4cc3Cl)n(Cc3nc(Cl)c(Cl)n3C)c2=O)c1 [II-0021]	3600 nM
CN1CC[C@H](n2cc3cc(Nc4nc(=O)n(Cc5ncn(C)n5)c(=O)n4Cc4cc(F)c(F)c(Cl)c4)c(Cl)cc3n2)C1=O [II-0451]	< 100 nM
COc1ccc(Nc2nc(=O)n(Cc3ccc(C(=O)N(C)C)[nH]c3=O)c(=O)n2Cc2cc(F)c(F)c(F)c2)cc1 [Compound I-0072]	< 100 nM
COc1ccc(Nc2nc(=O)n(Cc3cc(C)on3)c(=O)n2Cc2cc(F)c(F)c(F)c2)cc1 [Compound I-0334]	870 nM and 100 to 1000 nM
COc1ccc(Nc2nc(=O)n(Cc3cn(-c4ccccc4)cn3)c(=O)n2Cc2cc(F)c(F)c(F)c2)cc1 [Compound I-0412]	5100 nM and 1000 to 10000 nM

SMILES	IC50
Cn1cc2cc(Nc3nc(=O)n(Cc4nc[nH]n4)c(=O)n3Cc3cc(F)c(F)cc3F)c(Cl)cc2n1 [II-0091]	< 100 nM
CCOc1c(F)cc(F)cc1Cn1c(Nc2cc3cn(C)nc3cc2Cl)nc(=O)n(Cc2ncn(C)n2)c1=O [II-0638]	< 100 nM
COc1ccc(Nc2nc(=O)n(Cc3ccc[nH]c3=O)c(=O)n2C2CCc3cc(F)c(F)cc32)cc1 (racemic) [Compound I-0258]	3500 nM and 1000 to 10000 nM
Cn1cnc(Cn2c(=O)nc(Nc3cc4cn(C)nc4cc3Cl)n(Cc3cc(Cl)c(F)cn3)c2=O)n1 [II-0542]	< 100 nM
COc1ccc(Nc2nc(=O)n(Cc3cc(-c4cn(C)cn4)c[nH]c3=O)c(=O)n2Cc2cc(F)c(F)c(F)c2)cc1 [Compound I-0105]	< 100 nM
O=c1[nH]cccc1Cn1c(=O)nc(NC23CC(Nc4nc(Cl)cc(Cl)n4)(C2)C3)n(Cc2cc(F)c(F)c(F)c2)c1=O [II-0622]	< 100 nM
Cn1cnc(Cn2c(=O)nc(Nc3cc4cn(CCN)nc4cc3Cl)n(Cc3cc(Cl)c(F)cc3F)c2=O)n1 [II-0530]	< 100 nM
O=c1[nH]cccc1Cn1c(=O)nc(NC23CC(Nc4ncc(C(F)(F)F)cn4)(C2)C3)n(Cc2cc(F)c(F)c(F)c2)c1=O [II-0456]	< 100 nM
Cc1nc2cc(Cl)c(Nc3nc(=O)n(Cc4ccc[nH]c4=O)c(=O)n3Cc3cc(F)c(F)c(F)c3)cc2n1C [Compound I-0439]	< 100 nM
Cn1cnc(Cn2c(=O)nc(Nc3cc4cn([C@H]5CC[C@H](N)CC5)nc4cc3Cl)n(Cc3cc(Cl)c(F)cc3F)c2=O)n1 [II-0531]	< 100 nM
Cn1cnc(Cn2c(=O)nc(Nc3cc4cn(CC(F)F)nc4cc3Cl)n(Cc3cc(Cl)c(F)cn3)c2=O)n1 [II-0540]	< 100 nM
COc1cc(OC)nc(NC23CC(Nc4nc(=O)n(CC5=CC=CNC5C)c(=O)n4Cc4cc(F)c(F)c(F)c4)(C2)C3)n1 (stereo not shown) [II-0626]	< 100 nM
Cc1cncc(-n2c(=O)nc(Nc3cc(C)c(N=S(C)(C)=O)cc3Cl)n(Cc3cc(Cl)ccc3C)c2=O)c1 [II-0629]	< 100 nM
COCCOc1ccc(Nc2nc(=O)n(Cc3ccc[nH]c3=O)c(=O)n2Cc2cc(F)c(F)c(F)c2)c(Cl)c1 [Compound I-0096]	< 100 nM
COc1ccc(Nc2nc(=O)n(Cc3c[nH]c(=O)[nH]c3=O)c(=O)n2Cc2cc(F)c(F)c(F)c2)cc1 [Compound I-0099]	< 100 nM
COc1ccnc(NC23CC(Nc4nc(=O)n(Cc5ncn(C)n5)c(=O)n4Cc4cc(F)c(F)c(F)c4)(C2)C3)n1 [II-0113]	< 100 nM
CC(=O)Nc1nc2ccc(Nc3nc(=O)n(-c4cncc5ccccc45)c(=O)n3Cc3ccc(F)c(C#N)c3)cc2s1 [II-0170]	< 100 nM
Cc1cncc(-n2c(=O)nc(Nc3cc4cn([C@H]5CC[C@H](N)CC5)nc4cc3Cl)n(Cc3cc(Cl)ccc3Cl)c2=O)c1 [II-0628]	< 100 nM
Cc1cncc(-n2c(=O)nc(Nc3ccc(N=S(C)(C)=O)cc3C)n(Cc3cc(Cl)ccc3C)c2=O)c1 [II-0631]	< 100 nM
COc1ccc(Nc2nc(=O)n(Cc3nc(Br)c[nH]c3=O)c(=O)n2Cc2cc(F)c(F)c(F)c2)cc1 [Compound I-0106]	1900 nM and 1000 to 10000 nM
CC(=O)Nc1nc2cc(Cl)c(Nc3nc(=O)n(Cc4ncn(C)n4)c(=O)n3Cc3cc(F)c(F)c(F)c3)cc2s1 [II-0310]	< 100 nM
Cn1cnc(Cn2c(=O)nc(Nc3cc4cn(C)nc4cc3Cl)n(CC3CCCCC3)c2=O)n1 [II-0606]	100 to 1000 nM
Cn1cc2cc(Nc3nc(=O)n(Cc4ccc[nH]c4=O)c(=O)n3Cc3cc(F)c(F)c(F)c3)ccc2n1 [Compound I-0143]	< 100 nM

SMILES	IC50
O=c1[nH]cccc1Cn1c(=O)nc(Nc2ccc(-c3cocn3)cc2Cl)n(Cc2cc(F)c(F)c(F)c2)c1=O [Compound I-0396]	3100 nM and 1000 to 10000 nM
O=c1[nH]cccc1Cn1c(=O)nc(NC23CC(Nc4ncc5ccccc5n4)(C2)C3)n(Cc2cc(F)c(F)c(F)c2)c1=O [II-0457]	< 100 nM
O=c1[nH]cccc1Cn1c(=O)nc(Nc2ccc(F)cc2Cl)n(Cc2cc(F)c(F)c(F)c2)c1=O [Compound I-0001]	100 to 1000 nM
CN(C)C(=O)Cn1cc2cc(Nc3nc(=O)n(Cc4ccc[nH]c4=O)c(=O)n3Cc3cc(F)c(F)c(F)c3)c(Cl)cc2n1 [Compound I-0367]	< 100 nM
Cn1cnc(Cn2c(=O)nc(Nc3cc4cn(CC(F)F)nc4cc3F)n(Cc3ccc(F)c(C#N)c3)c2=O)n1 [II-0471]	< 100 nM
COC(=O)c1cccc2c1CN(c1nc(=O)n(Cc3ccc[nH]c3=O)c(=O)n1Cc1cc(F)c(F)c(F)c1)C2 [II-0216]	< 100 nM
Cc1nc2cc(Cl)c(Nc3nc(=O)n(Cc4ncn(C)n4)c(=O)n3Cc3cc(F)c(F)cc3F)cc2n1C [II-0019]	< 100 nM
Cc1nc2cc(Cl)c(Nc3nc(=O)n(Cc4ccc[nH]c4=O)c(=O)n3Cc3cc(F)c(F)c(F)c3)cc2n1CCCS(C)(=O)=O [Compound I-0446]	< 100 nM
COc1ccc(Nc2nc(=O)n(Cc3ccc[nH]c3=O)c(=O)n2C2CCCc3cc(F)c(F)cc32)cc1 (racemic) [Compound I-0257]	2900 nM
Cn1cc(Nc2nc(=O)n(Cc3ccc[nH]c3=O)c(=O)n2Cc2cc(F)c(F)c(F)c2)c(Cl)cc1=O [Compound I-0244]	< 100 nM
Cn1cc2cc(Nc3nc(=O)n(Cc4cc5ccsc5[nH]c4=O)c(=O)n3Cc3ccc(F)c(C#N)c3)ccc2n1 [II-0009]	< 100 nM
CNC(=O)Cn1c(=O)[nH]/c(=N\c2ccc(OC(F)F)cc2C)n(Cc2cc(F)c(F)c(F)c2)c1=O [II-0331]	1000 to 10000 nM
Cn1cnc(Cn2c(=O)nc(Nc3cc4cn(C)nc4cc3Cl)n(Cc3cc(Cl)ccc3O)c2=O)n1 [II-0428]	840 nM
COc1ccc(Nc2nc(=O)n(CC3(C)COC3)c(=O)n2Cc2cc(F)c(F)c(F)c2)cc1 [II-0274]	3000 nM
Cn1cnc(Cn2c(=O)cc(Nc3cc4cn(CC(F)F)nc4cc3Cl)n(Cc3ccc(F)c(C#N)c3)c2=O)n1 [II-0432]	< 100 nM
C[C@H](Nc1nc(=O)n(Cc2ccc[nH]c2=O)c(=O)n1Cc1cc(F)c(F)c(F)c1)c1ccccc1 [II-0230]	550 nM
Cc1cncc(-n2c(=O)nc(Nc3ccc(N=S4(=O)CCCC4)c(Cl)c3)n(Cc3cc(Cl)ccc3C)c2=O)c1 [II-0615]	< 100 nM
CCn1cc2cc(Nc3nc(=O)n(Cc4ncn(C)n4)c(=O)n3Cc3cc(Cl)c(F)cn3)c(Cl)cc2n1 [II-0268]	< 100 nM
Cn1cc2cc(Nc3nc(=O)n(Cc4c[nH]c(=O)[nH]c4=O)c(=O)n3Cc3cc(F)c(F)c(F)c3)c(Cl)cc2n1 [Compound I-0405]	< 100 nM
Cc1cncc(-n2c(=O)nc(Nc3ccc(N=S(C)(C)=O)cc3Cl)n(Cc3ccc(F)c(C#N)c3)c2=O)c1 [II-0575]	< 100 nM
CCS(=O)(CC)=Nc1ccc(Nc2nc(=O)n(-c3cncc(C)c3)c(=O)n2Cc2cc(Cl)ccc2C)c(Cl)c1 [II-0621]	< 100 nM
